# Values quoted from earlier work, collected in patent US12390476B2, “Multiphasic contraceptive regimen for oral combination drug formulation of progestin and estrogen” (priority 2011, dated 2025).
# Conditions: compared to gestodene, desogestrel and drospirenone
smiles,measurement,value
"C#C[C@]1(O)CC[C@H]2[C@@H]3CCC4=CC(=O)CC[C@@H]4[C@H]3CC[C@@]21CC [LNG, levonorgestrel]",incidence of venous thromboembolism (VTE),lowest incidence
